Reference: patent publication US20230150920A1, “SALTS AND SOLID FORMS OF 4-BROMO-2,5-DIMETHOXYPHENETHYLAMINE” (priority 2021, published 2023)
Entries after “also recorded” stand apart in the source; their conditions may differ. Read-outs that look alike come from different tables or passages of the source.

Key:
[1] = Vapor stress, RT
Description: The sample was then centrifuged, while still warm, and the mother liquor was decanted. The isolated solids were air-dried and analyzed by XRPD.

[2] = 93% RH, RT
[3] = for recrystallization of non-crystalline material upon heating (XRPD): heated at ~110° C. for 10 minutes
[4] = Dynamic vapor sorption (DVS) with XRPD of the post-DVS sample; assay type: physicochemical; details: for hygroscopicity based on DVS data: 5 to 95% RH; for moisture gain by DVS: adsorption 5 to 95% RH; for behaviour on desorption / form change by XRPD of post-DVS sample: desorption 95 to 5% RH
Procedure, shortened: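 Sample (about 2-25 mg depending on run) held at 25° C. and stepped in 10% RH increments 5→95% RH (adsorption) then 95→5% RH (desorption). Each step advanced at 0.01% weight change (in 5 min for later runs) or after a maximum of 1 h or 90 min; percent weight change reported.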

[5] = 25° C., listed as Non-crystalline 2C-B tartrate
[6] = 25° C., listed as non-crystalline 2C-B tartrate

SMILES: COc1cc(CCN)c(OC)cc1Br.O=C(O)C(O)C(O)C(=O)O [non-crystalline 2C-B Tartrate, 4-bromo-2,5-dimethoxyphenethylamine (2C-B) tartrate]
- XRPD result after vapor stress ([1]; EtOH): Tartrate (Form 1)
- XRPD result after vapor stress ([1]; H2O): Tartrate (Form 1)
- XRPD result after vapor stress ([1]; acetone): Tartrate (Form 1)
- XRPD result after humidity stress [2]: Tartrate (Form 1)
- XRPD result after heat stress ([3]; 60° C., 9 d): NC + br pk (23°)
- XRPD result after heat stress ([3]; 110° C., 10 min.): Tartrate (Form 1) +
- recrystallization of non-crystalline material upon heating (XRPD) [3]: recrystallizes to Tartrate (Form 1) upon heating; also recorded: crystallized to 2C-B Tartrate (Form 1)
- recrystallization of non-crystalline material upon heating (XRPD) ([3]; listed as non-crystalline tartrate): crystallization to Tartrate (Form 1) was observed by XRPD
- hygroscopicity based on DVS data [4, 5]: hygroscopic
- hygroscopicity based on DVS data [4, 6]: hygroscopic
- moisture gain by DVS [4, 5]: 11.7%
- moisture gain by DVS [4, 6]: 11.7%
- moisture gain by DVS above 55% RH ([4]; above 55% RH): 9.7%
- behaviour on desorption / form change by XRPD of post-DVS sample ([4]; listed as Non-crystalline 2C-B tartrate): remained non-crystalline
- behaviour on desorption / form change by XRPD of post-DVS sample ([4]; listed as non-crystalline 2C-B tartrate): remains non-crystalline
- DVS desorption weight loss, 95-5% RH ([4]; desorption, 95-5% RH, 25° C.): 95-5% RH: 12.3% loss
- post-DVS XRPD ([4]; solids after DVS cycle, NC = non-crystalline, br pk = broad peak): NC + br pk (25°)
- DVS sorption, weight gain 5-55% RH ([4]; sorption, 5-55% RH, 25° C.): 5-55% RH: 2.0% gain
- DVS sorption total gain ([4]; sorption, 5-95% RH, 25° C.): Total gain: 11.7%
- DVS sorption, weight gain 55-95% RH ([4]; sorption, 55-95% RH, 25° C.): 55-95% RH: 9.7% gain
